Experimental findings from PMC5365662, “A Short Double-Stapled Peptide Inhibits Respiratory Syncytial Virus Entry and Spreading” (Antimicrobial Agents and Chemotherapy, 2017) are described below.

Bridge positions count the residues as written; N and C are the ends. Square brackets hold non-standard residues; d marks the D form. Peptide text beside a SMILES is read from it. R8 = C=CCCCCCC[C@@](C)(N)C(=O)O; R5 = C=CCCC[C@@](C)(N)C(=O)O; S5 = C=CCCC[C@](C)(N)C(=O)O

One data set can be described thus: circular dichroism. The following applies: 10 mM phosphate; pH 7.5; 25 °C; 50 uM. For orientation: CD spectra are sensitive to the conformation of chiral molecules.
The target in data set [1] is 5HB, a recombinant protein containing 3 HR1 domains covalently attached to 2 HR2 domains. The following applies: competition with fluorescently labeled T108 probe (2 nM), 5HB 50 nM, 10 min preincubation + 30 min room temperature, duplicates. The text has this:
The RSV HR2 region (residues 476 to 524) is a 49-amino-acid sequence that has been extensively characterized (Fig. 1). HR2 is a largely unstructured peptide in aqueous solution folding into an α-helix upon binding to trimeric HR1 coiled coils ([20]). […] We reduced HR2 (aa 483 to 516) into three short overlapping subdomains (subdomains 1 to 3) (Fig. 1). These peptides were scanned for various stapling combinations. […] Far-UV circular dichroism (CD) spectropolarimetry was used to investigate the effect of stapling on the α-helical content of the peptides. […] To assess the propensity of the stapled peptides to hinder the formation of the postfusion six-helix bundle required for viral cell entry, we used a 5-helix bundle (5HB) biochemical fluorescence polarization (FP) competition assay as previously described ([21], [22]).
The coding sequence of 5HB was designed as described previously and de novo synthesized by Genscript ([21]). The HR1 (aa 126 to 182) and HR2 (aa 476 to 524) coding sequences from wild-type RSV A2 strain F ([36]) were codon optimized for overexpression in Escherichia coli and cloned at NdeI/BamHI restriction sites of pET-15b to generate the expression plasmid for 5HB. The 5HB expression construct was transformed into Escherichia coli BL21(DE3). Cells were grown at 37°C to an optical density at 600 nm of 0.8 followed by induction with isopropyl-1-thio-β-D-galactopyranoside at a final concentration of 0.5 mM for 12 to 15 h. Cells were harvested by centrifugation, washed twice with PBS, and resuspended in 20 ml of PBS (pH 7.4), 500 mM NaCl, and 1% Triton X-100 supplemented with complete protease inhibitor. Cell suspensions were disrupted by sonication. Cell debris was removed through ultracentrifugation at 18,000 × g for 1 h at 4°C, and clarified cell lysate was mixed with 1 ml of nickel-nitrilotriacetic acid (Ni-NTA) agarose beads (Qiagen) preequilibrated with 20 ml of lysis buffer. The suspension was agitated for 1 h at 4°C and loaded onto a 5-ml polypropylene column (Qiagen). The column was washed twice with 8 ml of PBS (pH 7.4), 500 mM NaCl, 1% Triton X-100, and 100 mM imidazole. Proteins were eluted with 5 × 500 μl of a buffer containing PBS (pH 7.4), 300 mM imidazole, and 500 mM NaCl. The imidazole was removed by dialysis, and protein purity was assessed by SDS-polyacrylamide gel electrophoresis followed by Coomassie blue staining. Protein concentration was determined with the Qubit 2.0 Fluorometer (Life Technologies).
The T108 ([12]) peptide probe was synthesized by standard SPPS procedures using HCTU as a coupling reagent as described above. A 10-μl volume of recombinant 5HB protein in FP buffer (20 mM PBS [pH 7.4], 500 mM NaCl, 0.01% [vol/vol] Tween 20, and 0.05 mg/ml bovine gamma globulin) was preincubated for 10 min at room temperature with 10 μl of the appropriate concentration of the inhibitor, after which 10 μl of fluorescein isothiocyanate (FITC)-T106 was added and further incubated for 30 min at room temperature. The final concentrations of protein and probe were 50 nM and 2 nM, respectively. The fluorescence polarization assay was performed in 384-well plates using a Spectramax Paradigm (Molecular Devices), using excitation and emission wavelengths of 485 nm and 535 nm, respectively. The acquisition time was 700 ms, and the read height was 1 mm. All experiments were performed in duplicate. […] In order to ensure robust fitting for some fits, r0 was kept constant at the value measured for the free tracer in buffer.

Compound `CC[C@H](C)[C@H](NC(=O)[C@H](CCC(=O)O)NC(C)=O)C(=O)N[C@@H](CO)C(=O)N[C@@H](CCC(N)=O)C(=O)N[C@H](C(=O)N[C@@H](CC(N)=O)C(=O)N[C@@H](CCC(=O)O)C(=O)N[C@@H](CCCCN)C(=O)N[C@H](C(=O)N[C@]1(C)CCCCCCC=CCCC[C@@](C)(C(N)=O)NC(=O)[C@H]([C@@H](C)CC)NC(=O)[C@H](Cc2ccccc2)NC(=O)[C@H](C)NC(=O)[C@H](CC(C)C)NC(=O)[C@H](CO)NC(=O)[C@H](CCC(N)=O)NC1=O)[C@@H](C)CC)C(C)C` [Peptide 2f] (Ac-EISQVNEKI[R8]QSLAFI[S5]-NH2; staple 10-17) came in with a helicity in “circular dichroism” of 15.7%. For the same compound, in data set [1], the Kd worked out at 363 ± 238 µM.

Consider `CC[C@H](C)[C@H](NC(=O)[C@H](CCCCN)NC(=O)[C@H](CCC(=O)O)NC(=O)[C@H](CC(N)=O)NC(=O)[C@@H](NC(=O)[C@H](CCC(N)=O)NC(=O)[C@H](CO)NC(=O)[C@@H](NC(=O)[C@H](CO)NC(=O)[C@H](C)NC(=O)[C@H](CC(=O)O)NC(=O)[C@H](Cc1ccccc1)NC(=O)[C@H](CCC(=O)O)NC(=O)[C@H](CC(=O)O)NC(=O)[C@H](CO)NC(=O)[C@@H]1CCCN1C(=O)[C@H](Cc1ccccc1)NC(=O)[C@H](CCC(=O)O)NC(C)=O)[C@@H](C)CC)C(C)C)C(=O)N[C@@H](CC(N)=O)C(N)=O` [Peptide 1] (Ac-EFPSDEFDASISQVNEKIN-NH2), for which the dissociation constant (Kd) in data set [1] turned out to be 2.2 ± 0.5 µM.

`CC[C@H](C)[C@H](NC(=O)[C@H](CCCCN)NC(=O)[C@H](CCC(=O)O)NC(=O)[C@H](CC(N)=O)NC(=O)[C@@H](NC(=O)[C@H](CCC(N)=O)NC(=O)[C@H](CO)NC(=O)[C@@H](NC(=O)[C@H](CO)NC(=O)[C@]1(C)CCCC=CCCC[C@](C)(NC(=O)[C@H](CO)NC(=O)[C@@H]2CCCN2C(=O)[C@H](Cc2ccccc2)NC(=O)[C@H](CCC(=O)O)NC(C)=O)C(=O)N[C@@H](CCC(=O)O)C(=O)N[C@@H](Cc2ccccc2)C(=O)N[C@@H](CC(=O)O)C(=O)N1)[C@@H](C)CC)C(C)C)C(=O)N[C@@H](CC(N)=O)C(N)=O` [Peptide 1e] (Ac-EFPS[S5]EFD[S5]SISQVNEKIN-NH2; staple 5-9) gave a helicity in “circular dichroism” of 35.5%. Further, the Kd in data set [1] worked out at 15 ± 3 µM.

`CC[C@H](C)[C@H](NC(=O)[C@H](CCCCN)NC(=O)[C@]1(C)CCCC=CCCC[C@](C)(NC(=O)[C@@H](NC(=O)[C@H](CO)NC(=O)[C@H](C)NC(=O)[C@H](CC(=O)O)NC(=O)[C@H](Cc2ccccc2)NC(=O)[C@H](CCC(=O)O)NC(=O)[C@H](CC(=O)O)NC(=O)[C@H](CO)NC(=O)[C@@H]2CCCN2C(=O)[C@H](Cc2ccccc2)NC(=O)[C@H](CCC(=O)O)NC(C)=O)[C@@H](C)CC)C(=O)N[C@@H](CCC(N)=O)C(=O)N[C@@H](C(C)C)C(=O)N[C@@H](CC(N)=O)C(=O)N1)C(=O)N[C@@H](CC(N)=O)C(N)=O` [Peptide 1g] (Ac-EFPSDEFDASI[S5]QVN[S5]KIN-NH2; staple 12-16) gave a helicity in the data set “circular dichroism” of 46.8%. In addition, in data set [1], the Kd is 191 ± 19 µM.

`CC[C@H](C)[C@H](NC(=O)[C@H](Cc1ccccc1)NC(=O)[C@H](C)NC(=O)[C@H](CC(C)C)NC(=O)[C@H](CO)NC(=O)[C@]1(C)CCCC=CCCC[C@@](C)(NC(=O)[C@H](CCC(=O)O)NC(=O)[C@H](CC(N)=O)NC(=O)[C@@H](NC(=O)[C@H](CCC(N)=O)NC(=O)[C@H](CO)NC(=O)[C@@H](NC(=O)[C@H](CCC(=O)O)NC(C)=O)[C@@H](C)CC)C(C)C)C(=O)N[C@@H]([C@@H](C)CC)C(=O)N[C@@H](CC(N)=O)C(=O)N1)C(=O)N[C@@H](CCCNC(=N)N)C(N)=O` [Peptide 2c] (Ac-EISQVNE[R5]IN[S5]SLAFIR-NH2; staple 8-11) returned a helicity in “circular dichroism” of 13.8%. In data set [1], the Kd stood at 125 ± 16 µM.

As for `CC[C@H](C)[C@@H]1NC(=O)[C@H](Cc2ccccc2)NC(=O)[C@](C)(NC(=O)[C@H](CC(C)C)NC(=O)[C@H](CO)NC(=O)[C@H](CCC(N)=O)NC(=O)[C@H](CCC(=O)O)NC(C)=O)CCCCCCC=CCCC[C@@](C)(C(=O)N[C@@H](CC(C)C)C(=O)N[C@@H](CC(C)C)C(=O)N[C@@H](Cc2c[nH]cn2)C(=O)N[C@@H](CC(N)=O)C(=O)N[C@H](C(N)=O)C(C)C)NC(=O)[C@H](CC(=O)O)NC(=O)[C@H](CO)NC(=O)[C@H](CCCCN)NC(=O)[C@H](CCCNC(=N)N)NC1=O` [Peptide 3e] (Ac-EQSL[R8]FIRKSD[S5]LLHNV-NH2; staple 5-12), the helicity in “circular dichroism” amounted to 17.5%. In data set [1], the Kd amounted to 71 ± 34 µM.

In the data set “circular dichroism”, `CC[C@H](C)[C@H](NC(=O)[C@H](Cc1ccccc1)NC(=O)[C@]1(C)CCCC=CCCC[C@](C)(NC(=O)[C@@H](NC(=O)[C@H](CCCCN)NC(=O)[C@H](CCC(=O)O)NC(=O)[C@H](CC(N)=O)NC(=O)[C@@H](NC(=O)[C@H](CCC(N)=O)NC(=O)[C@H](CO)NC(=O)[C@@H](NC(=O)[C@H](CCC(=O)O)NC(C)=O)[C@@H](C)CC)C(C)C)[C@@H](C)CC)C(=O)N[C@@H](CCC(N)=O)C(=O)N[C@@H](CO)C(=O)N[C@@H](CC(C)C)C(=O)N1)C(=O)N[C@@H](CCCNC(=N)N)C(N)=O` [Peptide 2b] (Ac-EISQVNEKI[S5]QSL[S5]FIR-NH2; staple 10-14) registered a helicity of 35.8%. Besides, the Kd in data set [1] was determined as 369 ± 99 µM.

The compound `CC[C@H](C)[C@H](NC(=O)[C@H](CO)NC(=O)[C@H](C)NC(=O)[C@H](CC(=O)O)NC(=O)[C@H](Cc1ccccc1)NC(=O)[C@H](CCC(=O)O)NC(=O)[C@H](CC(=O)O)NC(=O)[C@H](CO)NC(=O)[C@@H]1CCCN1C(=O)[C@H](Cc1ccccc1)NC(=O)[C@H](CCC(=O)O)NC(C)=O)C(=O)N[C@]1(C)CCCCCCC=CCCC[C@@](C)(C(N)=O)NC(=O)[C@H]([C@@H](C)CC)NC(=O)[C@H](CCCCN)NC(=O)[C@H](CCC(=O)O)NC(=O)[C@H](CC(N)=O)NC(=O)[C@H](C(C)C)NC(=O)[C@H](CCC(N)=O)NC1=O` [Peptide 1c] (Ac-EFPSDEFDASI[R8]QVNEKI[S5]-NH2; staple 12-19) registered a helicity in “circular dichroism” of 24.5%. Moreover, the equilibrium dissociation constant (Kd) in data set [1] was 221 ± 33 µM.

Consider `CC[C@H](C)[C@H](NC(=O)[C@H](Cc1ccccc1)NC(=O)[C@H](C)NC(=O)[C@H](CC(C)C)NC(=O)[C@H](CO)NC(=O)[C@H](CCC(N)=O)NC(=O)[C@H](CC(N)=O)NC(=O)[C@@H](NC(=O)[C@]1(C)CCCC=CCCC[C@](C)(NC(=O)[C@H](CO)NC(=O)[C@@H](NC(=O)[C@H](CCC(=O)O)NC(C)=O)[C@@H](C)CC)C(=O)N[C@@H](C(C)C)C(=O)N[C@@H](CC(N)=O)C(=O)N[C@@H](CCC(=O)O)C(=O)N1)[C@@H](C)CC)C(=O)N[C@@H](CCCNC(=N)N)C(N)=O` [Peptide 2a] (Ac-EIS[S5]VNE[S5]INQSLAFIR-NH2; staple 4-8), for which the helicity in “circular dichroism” is 5.2%. Moreover, the Kd in data set [1] is 405 ± 121 µM.

In the data set “circular dichroism”, `CC[C@H](C)[C@H](NC(=O)[C@H](Cc1ccccc1)NC(=O)[C@H](C)NC(=O)[C@H](CC(C)C)NC(=O)[C@H](CO)NC(=O)[C@H](CCC(N)=O)NC(=O)[C@H](CCC(=O)O)NC(C)=O)C(=O)N[C@@]1(C)CCCC=CCCC[C@@](C)(C(=O)N[C@@H](CC(C)C)C(=O)N[C@@H](CC(C)C)C(=O)N[C@@H](Cc2c[nH]cn2)C(=O)N[C@@H](CC(N)=O)C(=O)N[C@H](C(N)=O)C(C)C)NC(=O)[C@H](CC(=O)O)NC(=O)[C@H](CO)NC(=O)[C@H](CCCCN)NC1=O` [Peptide 3b] (Ac-EQSLAFI[S5]KSD[S5]LLHNV-NH2; staple 8-12) displayed a helicity of 23%. Besides, in data set [1], the Kd came to 55.9 ± 4 µM.

The term Kd denotes the constant that tells how readily two partners part at equilibrium.
